The record followed here is patent publication US11896568B2, “Compositions and methods for treating patients suffering from glioma or leukemia” (University of Cincinnati, priority 2016, dated 2024).

Assay [1] has as its system Primary AML cells with IDH mutations. The assay is described as follows: JQ1 sensitivity of primary AML cells. In kind it is cell-based, human. The settings on record: "often".
For assay [2], the system named is R-2HG-resistant leukemic cells. Description: JQ1 with R-2HG in resistant leukemic cells, cell viability. The format is cell-based, human. The settings on record: inhibition of MYC signaling by JQ1. How it is done: Cell proliferation/viability, cell cycle and cell apoptosis assays. To study the effects of R-2HG, FTO, or IDH1^R132H on viability, the cells were seeded into 96-well plates at the concentration of 5,000-10,000 cells/well in triplicates and MTT (G4000, Promega) was used to assess cell proliferation and viability following the manufacturer's instructions. For cell cycle analysis, Propidium iodide (PI) DNA staining was used to assess the cells at G0/G1, S and G2/M phases, while Hoechst 33342 and Pyronin Y were used to determine the cells at G0, G1 and S/G2/M stages. For the PI staining, cells were resuspended in Krishan's reagent (0.05 mg/ml PI, 0.1% trisodium citrate, 0.02 mg/ml ribonuclease A, 0.3% NP-40), incubated at 37° C. for 30 minutes and then applied to the flow cytometer.; For Hoechst/Pyronin Y staining, the cells were suspended in cell culture medium, incubated at 37° C. for 45 minutes with existence of 10 ug/mL Hoechst 33342 and further incubated at 37° C. for 15 minutes with existence of Pyronin Y before flow cytometry. Cell apoptosis assay was conducted with FITC Annexin V Apoptosis Detection Kit I (BD Pharmingen) according to the manufacturer's instructions.

Take `Cc1sc2c(c1C)C(c1ccc(Cl)cc1)=N[C@@H](CC(=O)OC(C)(C)C)c1nnc(C)n1-2` [JQ1]: in assay [1], the IC50 is less than 1000 nM. The “sensitivity of R-2HG-resistant leukemic cells to exogenous R-2HG or IDH1^R132H” value in assay [2] is recorded as “notably increased sensitivity”.
